# From article PMC10196813 (Angewandte Chemie (International ed. in English), 2023)
# Peptide text beside a SMILES is read from it. * marks the point of attachment. Cbz = O=C(OCc1ccccc1)*
# Tested on: PTP1B/TC-PTP
# Assay type: cell-based
# Conditions: HEK293 cells, followed by 4 h DU-14 at 100 nM
row,SMILES,effect of pre-treatment/addition on DU-14 mediated PTP1B and TC-PTP degradation
1,"Cc1ncsc1-c1ccc([C@H](C)NC(=O)[C@@H]2C[C@@H](O)CN2C(=O)[C@@H](N)C(C)(C)C)cc1 [(S,R,S)-AHPC-Me]",reduced
2,Nc1cccc2c1CN(C1CCC(=O)NC1=O)C2=O (stereo not shown) [Lenalidomide],had no effect
3,CC(C)C[C@@H](C=O)NC(=O)[C@H](CC(C)C)NC(=O)[C@H](CC(C)C)NC(=O)OCc1ccccc1 [MG-132] (Cbz-Leu-Leu-Leu-aldehyde),markedly reduced
4,NS(=O)(=O)OC[C@@H]1C[C@@H](n2ccc3c(N[C@H]4CCc5ccccc54)ncnc32)C[C@@H]1O [MLN-4924],markedly reduced
